Results: patent publication US20180179256A1 (priority 2015, published 2018)
“Also recorded” adds a separate entry of the source.

test system: HLA-DR; type: cell-based, human

Row | Sequence | % Inhibition by HLA-DR blocking Ab | Peptide-specific T cell response on blocking HLA-DR (in words)
1 | AANIIGILHLILWILDRL [H7N9-10] | 68% | only partially inhibited
2 | AVKLYKKLKREMTFHGA [H7N9-9] | 100% | 
3 | DKLYERVKRQLRENAEED [H7N9-8] | 89% | only partially inhibited
4 | IVYWKQWLSLKNLTQ [H7N9-14A] | 100% | 
5 | KGILGFVFTLTVPSERGLQ [H7N9-3] | 97% | only partially inhibited
6 | PKYVKSNRLVLATG [IAV-4, reference compound] | 96% | only partially inhibited
7 | PKYVKSTKLRLATG [IAV-1, reference compound] | 100% | 
8 | PRYVKQNTLKLATG [IAV-3, reference compound] | 78% | only partially inhibited
9 | PRYVKQRSLLLATG [H7N9-13] | 100% | 
10 | PRYVKQSTLKLATG [IAV-2, reference compound] | 73% | only partially inhibited
11 | QITFMQALQLLLEVE [H7N9-12] | 100% | 
12 | QPEWFRNVLSIAPIMFSNK [H7N9-4] | 100% | 
13 | RIDFHWLMLNPNDTVTFS [H7N9-1] | 46% | only partially inhibited
14 | SRKLLLIVQALRDNLEPG [H7N9-11] | increased response | response increased; also recorded: response was absent except when HLA-DR was blocked
15 | YAEMKWLLSNTDNAAFPQ [H7N9-2] | 100% | 

test system: Normal subject PBMC; type: cell-based, human

Row | Sequence | Suppression of T cell response to pool of H7N9 ICS peptides | Responses to the pool of IAV peptides (1-4) in presence of peptide | Suppression of T cell responses to immunodominant HA peptides from circulating IAV strains
16 | AVKLYKKLKREMTFHGA [H7N9-9] | did not suppress T cell responses |  | 
17 | IVYWKQWLSLKNLTQ [H7N9-14A] |  | Reduced responses | 
18 | PRYVKQRSLLLATG [H7N9-13] | significantly suppressed T cell response to the pooled peptides; also recorded: significantly decreased | Reduced responses | significantly suppressed T cell response to IAV-3; also recorded: able to suppress responses
19 | WKQWLSLKNTLTQGSL [H7N9-14B] |  | Reduced responses | 
